Experimental data reported in US20160002247A1, “8-SUBSTITUTED IMIDAZOPYRIMIDINONE DERIVATIVE HAVING AUTOTAXIN INHIBITORY ACTIVITY” (THE UNIVERSITY OF TOKYO, priority 2013, published 2016).

Biological target: T1, Human autotaxin enzyme (Homo sapiens, UniProt Q13822)
T1 construct: purchased R&D System
Test: Evaluation of autotaxin inhibitor, Method B (Test Example 2): TG-mTMP fluorescence
Type: biochemical
Conditions: Assay Method B (Test Example 2), human autotaxin; read-out: Inhibitory Activity (autotaxin enzyme inhibitory activity, IC50 class)
Protocol: (Method B) Evaluation of Autotaxin Inhibitor
Solution A containing 25 mM Tris-HCl buffer (pH7.5), 100 mM NaCl, 5 mM MgCl2 and 0.1% BSA was prepared. Human autotaxin enzyme (purchased from R&D System) was diluted with Solution A, and 5 μL of which was added to a solution of test compound in DMSO. Furthermore, 5 μl of 0.5 μM TG-mTMP in Solution A was added and allowed to react at room temperature for 2 hours. 5 μl of 150 mM EDTA in Solution A was added to quench the reaction, and the fluorescent dye TokyoGreen, which was produced by the reaction, was detected. The fluorescence was detected using ViewLux (PerkinElmer, Inc.) with an excitation wavelength of 480 nm and a fluorescence wavelength of 540 nm.

Row | Compound | IC50
1 | Cc1cc(=O)n2cc(-c3ccc(Cl)cc3)nc2n1C(C)c1cccc(F)c1 (centres unmarked) [Compound 100] | 10 to 100 nM
2 | Cc1cc(=O)n2cc(-c3ccc(Cl)cc3)nc2n1Cc1ccc(F)cc1F [Compound 101] | 10 to 100 nM
3 | Cc1cc(=O)n2cc(-c3ccc(Cl)cc3)nc2n1Cc1ccc2ccccc2c1 [Compound 102] | 100 to 1000 nM
4 | COC(=O)c1ccc(Cn2c(C)cc(=O)n3cc(-c4ccc(Cl)cc4)nc23)cc1 [Compound 103] | 10 to 100 nM
5 | Cc1cc(=O)n2cc(-c3ccc(Cl)cc3)nc2n1Cc1ccc(Cl)c(Cl)c1 [Compound 104] | 10 to 100 nM
6 | Cc1cc(=O)n2cc(-c3ccc(Cl)cc3)nc2n1Cc1ccc(S(C)(=O)=O)cc1 [Compound 105] | 10 to 100 nM
7 | Cc1cc(=O)n2cc(-c3ccc(Cl)cc3)nc2n1CCCC#N [Compound 106] | 10 to 100 nM
8 | Cc1cc(=O)n2cc(-c3ccc(Cl)cc3)nc2n1CC1CCCO1 (centres unmarked) [Compound 107] | 100 to 1000 nM
9 | Cc1cc(=O)n2cc(-c3ccc(Cl)cc3)nc2n1C(C)c1cccc(C(F)(F)F)c1 (centres unmarked) [Compound 108] | 10 to 100 nM
10 | Cc1cc(=O)n2cc(-c3ccc(Cl)cc3)nc2n1Cc1ccncc1 [Compound 109] | 100 to 1000 nM
11 | Cc1cc(=O)n2cc(-c3ccc(Cl)cc3)nc2n1Cc1ccc(C(N)=O)cc1 [Compound 110] | 10 to 100 nM
12 | Cc1cc(=O)n2cc(-c3ccc(Cl)cc3)nc2n1Cc1ccc(C(=O)c2ccccc2)cc1 [Compound 111] | 100 to 1000 nM
13 | COC(=O)Cc1ccc(Cn2c(C)cc(=O)n3cc(-c4ccc(Cl)cc4)nc23)cc1 [Compound 112] | 10 to 100 nM
14 | Cc1cc(=O)n2cc(-c3ccc(Cl)cc3)nc2n1Cc1ccc(S(=O)(=O)C(F)F)cc1 [Compound 113] | 10 to 100 nM
15 | Cc1cc(=O)n2cc(-c3ccc(Cl)cc3)nc2n1Cc1ccccn1 [Compound 114] | 10 to 100 nM
16 | Cc1cc(=O)n2cc(-c3ccc(Cl)cc3)nc2n1Cc1cccc(C(F)(F)F)c1 [Compound 115] | 10 to 100 nM
17 | Cc1cc(=O)n2cc(-c3ccc(Cl)cc3)nc2n1Cc1ccc(C(F)(F)F)cc1 [Compound 116] | 100 to 1000 nM
18 | Cc1cc(=O)n2cc(-c3ccc(Cl)cc3)nc2n1Cc1cccnc1 [Compound 117] | 10 to 100 nM
19 | Cc1cc(=O)n2cc(-c3ccc(Cl)cc3)nc2n1CC1CCOC1 (centres unmarked) [Compound 118] | 100 to 1000 nM
20 | Cc1cc(=O)n2cc(-c3ccc(Cl)cc3)nc2n1Cc1ccc(COc2ccccc2)cc1 [Compound 120] | > 1000 nM
21 | Cc1cc(=O)n2cc(-c3ccc(Cl)cc3)nc2n1Cc1cccc(F)c1 [Compound 121] | 10 to 100 nM
22 | Cc1cc(=O)n2cc(-c3ccc(Cl)cc3)nc2n1Cc1ccc(OC(F)(F)F)cc1 [Compound 122] | 100 to 1000 nM
23 | Cc1cc(=O)n2cc(-c3ccc(Cl)cc3)nc2n1Cc1ccc(C(C)(C)C)cc1 [Compound 123] | 100 to 1000 nM
24 | COCCCCn1c(C)cc(=O)n2cc(-c3ccc(Cl)cc3)nc12 [Compound 124] | 10 to 100 nM
25 | CCCc1cn2c(=O)ccn(CCc3ccc(Cl)cc3)c2n1 [Compound 128] | > 1000 nM
26 | CCCc1cn2c(=O)ccn(CCCc3ccc(Cl)cc3)c2n1 [Compound 129] | > 1000 nM

Row | Compound | IC50
27 | CCCCCn1c(C)cc(=O)n2cc(-c3ccccc3)nc12 [Compound 138] | 100 to 1000 nM
28 | CCCCCn1c(C)cc(=O)n2cc(C3CCCCC3)nc12 [Compound 139] | 100 to 1000 nM
29 | CCCCCn1c(C)cc(=O)n2cc(-c3coc4ccccc34)nc12 [Compound 140] | 100 to 1000 nM
30 | CCCCCn1c(C)cc(=O)n2cc(-c3ccc(Oc4ccccc4)cc3)nc12 [Compound 141] | 10 to 100 nM
31 | CCCCCn1c(C)cc(=O)n2cc(-c3cc4ccccc4s3)nc12 [Compound 142] | 10 to 100 nM
32 | CCCCCn1c(C)cc(=O)n2cc(-c3cc4ccccc4o3)nc12 [Compound 143] | 100 to 1000 nM
33 | CCCCCn1c(C)cc(=O)n2cc(-c3ccsc3)nc12 [Compound 144] | 100 to 1000 nM
34 | CCCCCn1c(C)cc(=O)n2cc(-c3ccc(C4CCCCC4)cc3)nc12 [Compound 145] | > 1000 nM
35 | CCCCCn1c(C)cc(=O)n2cc(-c3ccc4occc4c3)nc12 [Compound 146] | 100 to 1000 nM
36 | CCCCCn1c(C)cc(=O)n2cc(-c3cccc(Cl)c3)nc12 [Compound 147] | > 1000 nM
37 | CCCCCn1c(C)cc(=O)n2cc(-c3ccc(N4CCCC4=O)cc3)nc12 [Compound 148] | > 1000 nM
38 | CCCCCn1c(C)cc(=O)n2cc(-c3ccc4c(c3)CCO4)nc12 [Compound 149] | 100 to 1000 nM
39 | CCCCCn1c(C)cc(=O)n2cc(-c3ccc4c(c3)CCC4)nc12 [Compound 150] | 100 to 1000 nM
40 | CCCCCn1c(C)cc(=O)n2cc(-c3ccc(C(=O)OCC)cc3)nc12 [Compound 151] | > 1000 nM
41 | CCCCCn1c(C)cc(=O)n2cc(-c3ccc(OC)cc3)nc12 [Compound 152] | 10 to 100 nM
42 | CCCCCn1c(C)cc(=O)n2cc(-c3ccc4ccccc4c3)nc12 [Compound 153] | > 1000 nM
43 | CCCCCn1c(C)cc(=O)n2cc(-c3ccc(C)cc3C)nc12 [Compound 154] | 10 to 100 nM
44 | CCCCCn1c(C)cc(=O)n2cc(-c3ccc(OC(F)F)cc3)nc12 [Compound 155] | 10 to 100 nM
45 | CCCCCn1c(C)cc(=O)n2cc(-c3ccc(OC(F)(F)F)cc3)nc12 [Compound 156] | < 10 nM
46 | CCCCCn1c(C)cc(=O)n2cc(-c3ccc(C#N)cc3)nc12 [Compound 157] | < 10 nM
47 | CCCCCn1c(C)cc(=O)n2cc(-c3ccc(Cl)cc3Cl)nc12 [Compound 158] | 10 to 100 nM
48 | CCCCCn1c(C)cc(=O)n2cc(-c3ccc(N(CC)CC)cc3)nc12 [Compound 159] | > 1000 nM
49 | CCCCCn1c(C)cc(=O)n2cc(-c3ccc4c(c3)OCCCO4)nc12 [Compound 160] | 100 to 1000 nM
50 | CCCCCn1c(C)cc(=O)n2cc(-c3ccc(C(F)(F)F)cc3)nc12 [Compound 161] | < 10 nM
51 | CCCCCn1c(C)cc(=O)n2cc(-c3ccc(F)cc3F)nc12 [Compound 162] | 100 to 1000 nM
52 | CCCCCn1c(C)cc(=O)n2cc(-c3ccccc3F)nc12 [Compound 163] | 100 to 1000 nM

Row | Compound | IC50
53 | CCCCCn1c(C)cc(=O)n2c(C=O)c(-c3ccc(Cl)cc3)nc12 [Compound 167, 2-(4-chlorophenyl)-7-methyl-5-oxo-8-pentyl-5,8-dihydroimidazo[1,2-a]pyrimidine-3-carbaldehyde] | 100 to 1000 nM
54 | CCCCCn1c(C)cc(=O)n2c(CO)c(-c3ccc(Cl)cc3)nc12 [Compound 168, 2-(4-chlorophenyl)-3-hydroxymethyl-7-methyl-8-pentylimidazo[1,2-a]pyrimidin-5(8H)-one] | 100 to 1000 nM
55 | CCCCCn1c(C)cc(=O)n2c(C)c(-c3ccc(Br)cc3)nc12 [Compound 169] | 10 to 100 nM
56 | CCCCCn1c(C)cc(=O)n2c(C)c(-c3ccc(Cl)cc3)nc12 [Compound 170] | 10 to 100 nM
57 | CCCCCn1c(C)cc(=O)n2c(Br)c(-c3ccc(Cl)cc3)nc12 [Compound 171] | 10 to 100 nM
58 | CCCCCn1c(C)cc(=O)n2c(CN)c(-c3ccc(Cl)cc3)nc12 [Compound 172] | > 1000 nM
59 | CCCCCn1c(C)cc(=O)n2c(CN(C)C)c(-c3ccc(Cl)cc3)nc12 [Compound 173] | > 1000 nM
60 | CCCCCn1c(Cl)cc(=O)n2cc(-c3ccc(Cl)cc3)nc12 [Compound 176, 7-chloro-2-(4-chlorophenyl)-8-pentylimidazo[1,2-a]pyrimidin-5(8H)-one] | 10 to 100 nM
61 | CCCCCn1c(NCc2ccc(C(=O)OC)cc2)cc(=O)n2cc(-c3ccc(Cl)cc3)nc12 [Compound 177, methyl 4-((2-(4-chlorophenyl)-5-oxo-8-pentyl-5,8-dihydroimidazo[1,2-a]pyrimidin-7-ylamino)methyl)benzoate] | 10 to 100 nM
62 | CCCCCn1c(NCc2ccc(C(=O)OC)cc2)c(C)c(=O)n2cc(-c3ccc(Cl)cc3)nc12 [Compound 178, methyl 4-((2-(4-chlorophenyl)-6-methyl-5-oxo-8-pentyl-5,8-dihydroimidazo[1,2-a]pyrimidin-7-ylamino)methyl)benzoate] | < 10 nM
63 | CCCCCn1c(C)c(CC(=O)O)c(=O)n2cc(-c3ccc(Cl)cc3)nc12 [Compound 179] | 10 to 100 nM
64 | CCCCCn1c(C)c(CCC(=O)O)c(=O)n2cc(-c3ccc(Cl)cc3)nc12 [Compound 180] | < 10 nM
65 | CCCCCn1c(C)c(CC(=O)NCC)c(=O)n2cc(-c3ccc(Cl)cc3)nc12 [Compound 181] | < 10 nM
66 | CCCCCn1c(C)c(-c2ccccc2)c(=O)n2cc(-c3ccc(Cl)cc3)nc12 [Compound 182] | > 1000 nM
67 | CCCCCn1c(C)c(C#CCO)c(=O)n2cc(-c3ccc(Cl)cc3)nc12 [Compound 183] | 10 to 100 nM
68 | CCCCCn1c(C)c(C#N)c(=O)n2cc(-c3ccc(Cl)cc3)nc12 [Compound 184] | > 1000 nM
69 | CCCCCn1c(C)c(C(=O)O)c(=O)n2cc(-c3ccc(Cl)cc3)nc12 [Compound 185] | 100 to 1000 nM
70 | CCCCCn1ccc(=O)n2cc(-c3ccc(Cl)cc3)nc12 [Compound 186] | 10 to 100 nM
71 | CCCCCn1c(N2CCCC2)cc(=O)n2cc(-c3ccc(Cl)cc3)nc12 [Compound 187] | 10 to 100 nM
72 | CCCCCn1c(NCCC)cc(=O)n2cc(-c3ccc(Cl)cc3)nc12 [Compound 188] | 10 to 100 nM
73 | CCCCCn1c(OCCC)cc(=O)n2cc(-c3ccc(Cl)cc3)nc12 [Compound 189] | 10 to 100 nM
74 | CCCCCn1c(N2CCN(CCN3CCOCC3)CC2)cc(=O)n2cc(-c3ccc(Cl)cc3)nc12 [Compound 191] | < 10 nM
75 | CCCCCn1c(OC2CCN(C)CC2)cc(=O)n2cc(-c3ccc(Cl)cc3)nc12 [Compound 193] | < 10 nM
76 | CCCCCn1c(N(C)Cc2ccc(C(=O)OC)cc2)cc(=O)n2cc(-c3ccc(Cl)cc3)nc12 [Compound 195] | < 10 nM
77 | CCCCCn1c(N2CCC2)cc(=O)n2cc(-c3ccc(Cl)cc3)nc12 [Compound 196] | < 10 nM
